As a reminder, the IC50 is the concentration that gives 50% inhibition. Lower therefore signals greater potency.

This is an account of results in patent publication US8138193B2, “Fused pyrazine compounds useful for the treatment of degenerative and inflammatory diseases” (Janssen Pharmaceutica N.V., priority 2007, dated 2012).

The target in the assay is T1, MAPKAPK5 (Homo sapiens, UniProt Q8IW41).
T1 sequence (Q8IW41 1-471 isoform Q8IW41-2): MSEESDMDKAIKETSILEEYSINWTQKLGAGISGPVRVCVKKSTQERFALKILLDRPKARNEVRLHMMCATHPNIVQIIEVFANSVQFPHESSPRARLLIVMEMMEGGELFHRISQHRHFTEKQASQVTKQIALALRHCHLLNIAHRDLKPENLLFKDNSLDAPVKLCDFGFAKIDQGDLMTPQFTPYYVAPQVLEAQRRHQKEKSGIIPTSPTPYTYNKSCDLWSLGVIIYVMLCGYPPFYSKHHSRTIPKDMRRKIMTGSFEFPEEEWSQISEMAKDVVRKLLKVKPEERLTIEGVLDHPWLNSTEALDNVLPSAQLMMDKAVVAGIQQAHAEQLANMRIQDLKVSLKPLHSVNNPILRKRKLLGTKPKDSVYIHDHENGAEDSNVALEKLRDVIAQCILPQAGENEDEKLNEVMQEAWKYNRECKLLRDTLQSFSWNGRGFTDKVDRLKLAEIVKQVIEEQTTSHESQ
Nature of the assay: MAPKAP-K5 FlashPlate kinase assay (33P-ATP). Conditions: 0.6 μM ATP, 30 minutes at room temperature. Type of assay: biochemical. Here is the method: 3 μM MAPKAP-K5 peptide substrate
In the case of `NC(=O)c1cc(-c2cnc(NC3CCN(Cc4ccccc4)C3)c3nccn23)co1` (single isomer, unassigned) [Example 17, 4-[8-(1-BENZYL-PYRROLIDIN-3-YLAMINO)-IMIDAZO[1,2-A]PYRAZIN-5-YL]-FURAN-2-CARBOXYLIC ACID AMIDE], the IC50 is > 1000 nM.

As to `O=C1NCc2cc(-c3cnc(NC4CCCCC4)c4nccn34)ccc21` [Example 1, 5-(8-(cyclohexylamino)imidazo[1,2-a]pyrazin-5-yl)isoindolin-1-one], the half-inhibitory concentration (IC50) lay within 101 to 500 nM.

Take `NC(=O)c1cc(-c2cnc(NC3CCC3)c3ncnn23)co1` [Example 2, 4-(8-(cyclobutylamino)-[1,2,4]triazolo[1,5-a]pyrazin-5-yl)furan-2-carboxamide]: the IC50 was 101 to 500 nM.

The compound `NC(=O)c1cc(-c2cnc(NC3CCN(Cc4ccccc4)C3)c3ncnn23)co1` (stereo not drawn) [Example 4, 4-[8-(1-Benzyl-pyrrolidin-3-ylamino)-[1,2,4]triazolo[1,5-a]pyrazin-5-yl]-furan-2-carboxylic acid amide] yielded an IC50 of 501 to 1000 nM.

Compound `O=C1NCc2cc(-c3cnc(NC4CCC4)c4nccn34)ccc21` [Example 5, 5-(8-(CYCLOBUTYLAMINO)IMIDAZO[1,2-A]PYRAZIN-5-YL)ISOINDOLIN-1-ONE] came in with an IC50 of 101 to 500 nM.

`NC(=O)c1cc(-c2cnc(NC3CCC3)c3nccn23)co1` [Example 6, 4-(8-(CYCLOBUTYLAMINO)IMIDAZO[1,2-A]PYRAZIN-5-YL)FURAN-2-CARBOXAMIDE]: the IC50 was 101 to 500 nM.

Consider `NC(=O)c1cc(-c2cnc(NC3CCCC3)c3nccn23)co1` [Example 7, 4-(8-(CYCLOPENTYLAMINO)IMIDAZO[1,2-A]PYRAZIN-5-YL)FURAN-2-CARBOXAMIDE], for which the IC50 fell in the range of 501 to 1000 nM.

As for `CC(C)(C)OC(=O)N1CCC(Nc2ncc(-c3ccc4c(c3)CNC4=O)n3ncnc23)CC1` [Example 12, TERT-BUTYL 4-(5-(1-OXOISOINDOLIN-5-YL)-[1,2,4]TRIAZOLO[1,5-A]PYRAZIN-8-YLAMINO)PIPERIDINE-1-CARBOXYLATE], the IC50 lay in the range of 501 to 1000 nM.

Take `O=C1NCc2cc(-c3cnc(NC4CC4)c4ncnn34)ccc21` [Example 14, 5-(8-(CYCLOPROPYLAMINO)-[1,2,4]TRIAZOLO[1,5-A]PYRAZIN-5-YL)ISOINDOLIN-1-ONE]: the half-inhibitory concentration (IC50) was in the range of 101 to 500 nM.

As to `O=C1NCc2cc(-c3cnc(NC4CCC(O)CC4)c4ncnn34)ccc21` (stereo not drawn) [Example 15, 5-(8-(4-HYDROXYCYCLOHEXYLAMINO)-[1,2,4]TRIAZOLO[1,5-A]PYRAZIN-5-YL)ISOINDOLIN-1-ONE], the IC50 is 101 to 500 nM.

Compound `CC(C)(C)OC(=O)NC1CCC(Nc2ncc(-c3ccc4c(c3)CNC4=O)n3ncnc23)CC1` (stereo not drawn) [Example 16, TERT-BUTYL 4-(5-(1-OXOISOINDOLIN-5-YL)-[1,2,4]TRIAZOLO[1,5-A]PYRAZIN-8-YLAMINO)CYCLOHEXYLCARBAMATE] had an IC50 of 501 to 1000 nM.

As to `NC(=O)c1cc(-c2cnc(NC3CCN(Cc4ccccc4)CC3)c3ncnn23)co1` [Example 18, 4-[8-(1-BENZYL-PIPERIDIN-4-YLAMINO)-[1,2,4]TRIAZOLO[1,5-A]PYRAZIN-5-YL]-FURAN-2-CARBOXYLIC ACID AMIDE], the IC50 was > 1000 nM.
